Active and inactive are the calls of the source.
Experiments:
[1] = target: T1, Endoribonuclease toxin MazF (Escherichia coli K-12, UniProt P0AE70); test: fluorescent RNA oligo signal without MazF, dose response, counter-screen for MazEF activator project, biochemical, fluorescence, single-stranded RNase substrate (AID 588502); type: functional
T1 sequence (P0AE70 whole entry): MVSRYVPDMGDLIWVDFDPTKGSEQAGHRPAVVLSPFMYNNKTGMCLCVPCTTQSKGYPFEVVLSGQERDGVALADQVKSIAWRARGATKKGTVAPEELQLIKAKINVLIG

[2] = target: T2, Corticotropin-releasing factor receptor 2/Corticotropin-releasing factor-binding protein (Homo sapiens, UniProt P24387+Q13324); test: activators of CRF receptor 2 with binding protein – uHTS hits, confirmation (AID 602473); type: functional; details: read-out: EC50_Mean
T2 sequence (Q13324 whole entry): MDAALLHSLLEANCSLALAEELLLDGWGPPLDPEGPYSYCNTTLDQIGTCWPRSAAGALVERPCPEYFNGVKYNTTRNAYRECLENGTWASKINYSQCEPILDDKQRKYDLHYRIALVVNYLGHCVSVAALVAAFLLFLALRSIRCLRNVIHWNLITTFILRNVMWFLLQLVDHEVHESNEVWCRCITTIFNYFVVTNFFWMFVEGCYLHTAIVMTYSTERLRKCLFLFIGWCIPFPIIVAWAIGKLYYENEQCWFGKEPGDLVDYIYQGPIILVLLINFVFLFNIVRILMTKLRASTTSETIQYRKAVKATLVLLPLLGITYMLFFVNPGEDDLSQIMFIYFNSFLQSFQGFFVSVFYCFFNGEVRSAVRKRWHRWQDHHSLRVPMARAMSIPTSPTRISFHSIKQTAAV
T2 sequence (P24387 whole entry): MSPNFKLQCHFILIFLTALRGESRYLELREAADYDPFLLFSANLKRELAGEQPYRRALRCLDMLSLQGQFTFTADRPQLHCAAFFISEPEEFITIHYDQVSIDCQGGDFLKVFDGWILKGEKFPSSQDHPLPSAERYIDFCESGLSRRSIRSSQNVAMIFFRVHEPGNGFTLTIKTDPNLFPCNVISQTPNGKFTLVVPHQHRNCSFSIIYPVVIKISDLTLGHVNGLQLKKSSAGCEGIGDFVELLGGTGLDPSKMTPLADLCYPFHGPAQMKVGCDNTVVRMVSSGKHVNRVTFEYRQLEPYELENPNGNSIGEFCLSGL

[3] = target: T1, Endoribonuclease toxin MazF; test: MazF toxin RNase activators, dose response, biochemical, fluorescence, single-stranded RNA substrate, uHTS hits (AID 588481); type: functional
[4] = target: Ephrin type-A receptor 4 (Mus musculus, UniProt Q03137); test: inhibitors of EphA4 binding to KYL peptide, primary screen, biochemical, colorimetric, mouse EphA4 (AID 689); type: functional
Ephrin type-A receptor 4, sequence (Q03137 whole entry): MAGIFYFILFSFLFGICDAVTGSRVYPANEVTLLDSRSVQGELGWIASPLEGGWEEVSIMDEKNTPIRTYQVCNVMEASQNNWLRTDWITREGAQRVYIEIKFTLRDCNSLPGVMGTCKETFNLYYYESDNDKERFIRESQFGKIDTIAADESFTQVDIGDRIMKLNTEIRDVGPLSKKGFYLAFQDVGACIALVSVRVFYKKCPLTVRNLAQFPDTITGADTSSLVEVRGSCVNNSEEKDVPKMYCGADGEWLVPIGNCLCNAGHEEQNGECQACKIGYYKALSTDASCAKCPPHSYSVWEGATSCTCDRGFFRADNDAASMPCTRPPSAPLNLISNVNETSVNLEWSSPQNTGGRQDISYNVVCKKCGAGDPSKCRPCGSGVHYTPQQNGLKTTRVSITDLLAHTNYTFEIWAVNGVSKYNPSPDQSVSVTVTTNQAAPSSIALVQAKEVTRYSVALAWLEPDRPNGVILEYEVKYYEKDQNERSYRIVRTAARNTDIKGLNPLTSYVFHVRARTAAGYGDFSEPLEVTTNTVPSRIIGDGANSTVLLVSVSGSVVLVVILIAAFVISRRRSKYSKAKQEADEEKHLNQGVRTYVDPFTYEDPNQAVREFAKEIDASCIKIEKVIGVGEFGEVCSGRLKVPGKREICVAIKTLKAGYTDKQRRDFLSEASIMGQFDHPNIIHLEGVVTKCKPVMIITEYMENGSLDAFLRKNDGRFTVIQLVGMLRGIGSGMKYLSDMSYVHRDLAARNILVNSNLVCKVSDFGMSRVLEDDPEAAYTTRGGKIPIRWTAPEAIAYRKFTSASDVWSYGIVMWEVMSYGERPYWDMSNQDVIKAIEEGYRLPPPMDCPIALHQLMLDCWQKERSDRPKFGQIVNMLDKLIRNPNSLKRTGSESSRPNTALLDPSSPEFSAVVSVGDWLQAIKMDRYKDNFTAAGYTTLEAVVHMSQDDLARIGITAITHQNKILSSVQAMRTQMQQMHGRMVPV

[5] = tested on: Streptococcus sp. 'group A'; test: growth inhibition of control SK(-) GAS strain, dose response, counter-screen for streptokinase expression inhibitor project, luminescence, kanamycin, BacTiterGlo, confirmation (AID 1900); type: functional, organism-based
[6] = cytotoxicity in HPDE-C7 cells, cell-based, fluorescence, HTS (AID 430); type: functional; details: Homo sapiens
[7] = target: T3, Streptokinase A (Streptococcus pyogenes serotype M1, UniProt P10520); test: S. pyogenes streptokinase expression inhibitors, potency, dose response, plasminogen activation absorbance, OD405 (AID 1914); type: functional, Streptococcus pyogenes M1 GAS;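 note: secreted streptokinase activity via plasminogen activation per viability signal from cell pellet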
T3 sequence (P10520 whole entry): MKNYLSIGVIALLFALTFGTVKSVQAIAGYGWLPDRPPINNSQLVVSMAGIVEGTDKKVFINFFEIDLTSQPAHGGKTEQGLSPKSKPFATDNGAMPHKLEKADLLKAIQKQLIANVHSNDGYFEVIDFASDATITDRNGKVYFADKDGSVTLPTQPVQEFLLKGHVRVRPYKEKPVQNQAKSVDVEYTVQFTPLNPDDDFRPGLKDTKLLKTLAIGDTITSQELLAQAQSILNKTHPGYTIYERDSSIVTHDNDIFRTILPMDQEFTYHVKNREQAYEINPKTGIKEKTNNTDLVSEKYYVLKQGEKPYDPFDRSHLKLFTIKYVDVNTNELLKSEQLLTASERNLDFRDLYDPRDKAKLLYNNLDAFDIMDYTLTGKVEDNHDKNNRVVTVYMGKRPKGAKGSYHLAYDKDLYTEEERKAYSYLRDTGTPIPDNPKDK

[8] = tested on: Streptococcus; test: Group A Streptococcus viability loss, dose response, counter-screen for streptokinase expression inhibitor project, luminescence, BacTiterGlo (AID 1915); type: functional, organism-based;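 note: potency for reduction of bacterial viability or growth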
[9] = cytotoxicity in KRAS-transformed pancreatic duct cells, primary screen, cell-based, fluorescence, HTS (AID 431); type: functional; details: Homo sapiens;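 note: cell line used: HPDE-C7K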
[10] = inhibitors of intracellular T. cruzi replication, confirmation, NIH3T3 host cells, beta-gal luminescence (AID 2044); type: functional, cell-based;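 note: intracellular parasites grown in NIH/3T3 mouse fibroblasts as host cells; luminescent beta-galactosidase reporter signal from transgenic T. cruzi replicating inside host cells; inhibitors lower the luminescence signal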
[11] = target: Sphingosine 1-phosphate receptor 2 (Homo sapiens, UniProt O95136); test: Dose Response Cell Based Assay for Antagonists of the S1P2 Receptor. [Related pubchem assays: 856, 736 ]; type: functional
Sphingosine 1-phosphate receptor 2, sequence (O95136 whole entry): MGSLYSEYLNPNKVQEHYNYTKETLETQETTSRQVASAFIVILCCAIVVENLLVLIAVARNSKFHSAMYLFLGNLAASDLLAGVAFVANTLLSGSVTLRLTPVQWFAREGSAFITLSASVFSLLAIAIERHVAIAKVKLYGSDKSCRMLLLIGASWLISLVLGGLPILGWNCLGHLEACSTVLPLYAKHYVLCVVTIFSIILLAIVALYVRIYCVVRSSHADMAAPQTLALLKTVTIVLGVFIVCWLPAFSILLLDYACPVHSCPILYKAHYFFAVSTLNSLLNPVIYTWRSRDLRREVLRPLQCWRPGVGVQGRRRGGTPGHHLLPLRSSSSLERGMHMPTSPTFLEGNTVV

[12] = cytotoxicity toward NIH3T3 fibroblasts, dose response, counter-screen, cell-based, ATP luminescence, mouse fibroblasts (AID 2010); type: functional;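 note: cells exposed to compound for about 90 hours before reading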
[13] = P. falciparum 3D7-ScDHODH growth inhibitors, dose response, SYBR Green, dry powder samples (AID 1159570); type: functional, cell-based;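 note: parasite growth measured after 72 hours of compound exposure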
[14] = P. falciparum ATP4 D1247Y mutant growth inhibitors, dose response, NITD609-resistant line, SYBR Green, dry powder (AID 1159571); type: functional, cell-based;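 note: parasites synchronized at ring stage by sorbitol before testing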
[15] = P. falciparum Dd2 growth inhibitors, dose response, SYBR Green, dry powder samples (AID 1159566); type: functional, cell-based;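 note: potency for growth inhibition with lower SYBR green DNA signal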
[16] = HepG2 cell cytotoxicity, dose response, cytotoxicity control, plate reader, dry powder samples (AID 1159569); type: functional, cell-based;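 note: inhibitor potency with signal falling toward the positive control level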
[17] = P. falciparum Dd2 growth inhibitors, dose response, SYBR Green, cherry-picked samples (AID 1159567); type: functional, cell-based
[18] = target: Luciferin 4-monooxygenase (Photinus pyralis, UniProt P08659); test: firefly luciferase enzyme inhibitors, dose response, biochemical, luminescence (AID 1891)
Luciferin 4-monooxygenase, sequence (P08659 whole entry): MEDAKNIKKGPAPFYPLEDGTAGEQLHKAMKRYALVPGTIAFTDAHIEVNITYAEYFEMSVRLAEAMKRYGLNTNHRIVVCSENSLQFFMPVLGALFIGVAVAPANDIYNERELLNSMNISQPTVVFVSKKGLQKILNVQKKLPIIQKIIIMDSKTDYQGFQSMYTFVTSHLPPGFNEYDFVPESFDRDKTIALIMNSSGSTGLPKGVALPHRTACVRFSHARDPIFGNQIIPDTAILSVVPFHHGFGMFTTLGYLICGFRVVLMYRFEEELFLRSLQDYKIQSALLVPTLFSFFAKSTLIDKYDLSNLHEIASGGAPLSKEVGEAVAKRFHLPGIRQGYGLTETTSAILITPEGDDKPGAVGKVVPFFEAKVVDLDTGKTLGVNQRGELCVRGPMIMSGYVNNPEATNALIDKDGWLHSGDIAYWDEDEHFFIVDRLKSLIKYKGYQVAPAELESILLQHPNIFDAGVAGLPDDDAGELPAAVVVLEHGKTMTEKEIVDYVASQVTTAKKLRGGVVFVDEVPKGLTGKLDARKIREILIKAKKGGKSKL

[19] = Luminescence Cell-Based Dose Confirmation HTS to Identify Inhibitors of Platelet Dense Granule Release. [Related pubchem assays: 1663 (Primary HTS), 1678 (Summary of Project)]; type: functional
[20] = Luminescence-based cell-based high throughput dose response assay to identify activators of the DAF-12 from the parasite S. stercoralis (ssDAF-12).; type: functional
[21] = target: Oxysterols receptor LXR-beta (Homo sapiens, UniProt P55055); test: LXR agonists, Gal4 luciferase reporter, dose response, counter-screen for ssDAF-12 agonist project, cell-based, luminescence, HEK293, S. stercoralis campaign (AID 720737); type: functional; details: read-out: IC50 (the source's name)
Oxysterols receptor LXR-beta, sequence (P55055 whole entry, the tested form may be a part): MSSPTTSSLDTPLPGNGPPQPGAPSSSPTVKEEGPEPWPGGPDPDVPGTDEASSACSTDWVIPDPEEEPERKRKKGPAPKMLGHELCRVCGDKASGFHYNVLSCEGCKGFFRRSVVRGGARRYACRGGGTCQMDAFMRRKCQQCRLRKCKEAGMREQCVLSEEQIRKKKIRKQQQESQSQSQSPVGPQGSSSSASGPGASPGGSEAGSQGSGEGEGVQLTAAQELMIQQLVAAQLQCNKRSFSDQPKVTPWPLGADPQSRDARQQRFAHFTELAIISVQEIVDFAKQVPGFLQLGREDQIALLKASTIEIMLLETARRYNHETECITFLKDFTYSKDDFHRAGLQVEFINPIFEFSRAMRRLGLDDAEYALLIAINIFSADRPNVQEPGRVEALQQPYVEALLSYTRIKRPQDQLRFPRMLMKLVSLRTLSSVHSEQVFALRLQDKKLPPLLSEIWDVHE

[22] = M. tuberculosis H37Rv growth inhibitors, H37Rv strain (AID 1626); type: functional
[23] = target: T4, Fatty acid synthase (Homo sapiens, UniProt P49327); test: FAS thioesterase domain inhibitors, dose response, biochemical, kinetic fluorescence intensity (AID 624326); type: functional;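 note: rate of fluorescence rise from hydrolysis of a fluorogenic O-methyl fluorescein ester substrate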
T4 sequence (P49327 whole entry, the tested form may be a part): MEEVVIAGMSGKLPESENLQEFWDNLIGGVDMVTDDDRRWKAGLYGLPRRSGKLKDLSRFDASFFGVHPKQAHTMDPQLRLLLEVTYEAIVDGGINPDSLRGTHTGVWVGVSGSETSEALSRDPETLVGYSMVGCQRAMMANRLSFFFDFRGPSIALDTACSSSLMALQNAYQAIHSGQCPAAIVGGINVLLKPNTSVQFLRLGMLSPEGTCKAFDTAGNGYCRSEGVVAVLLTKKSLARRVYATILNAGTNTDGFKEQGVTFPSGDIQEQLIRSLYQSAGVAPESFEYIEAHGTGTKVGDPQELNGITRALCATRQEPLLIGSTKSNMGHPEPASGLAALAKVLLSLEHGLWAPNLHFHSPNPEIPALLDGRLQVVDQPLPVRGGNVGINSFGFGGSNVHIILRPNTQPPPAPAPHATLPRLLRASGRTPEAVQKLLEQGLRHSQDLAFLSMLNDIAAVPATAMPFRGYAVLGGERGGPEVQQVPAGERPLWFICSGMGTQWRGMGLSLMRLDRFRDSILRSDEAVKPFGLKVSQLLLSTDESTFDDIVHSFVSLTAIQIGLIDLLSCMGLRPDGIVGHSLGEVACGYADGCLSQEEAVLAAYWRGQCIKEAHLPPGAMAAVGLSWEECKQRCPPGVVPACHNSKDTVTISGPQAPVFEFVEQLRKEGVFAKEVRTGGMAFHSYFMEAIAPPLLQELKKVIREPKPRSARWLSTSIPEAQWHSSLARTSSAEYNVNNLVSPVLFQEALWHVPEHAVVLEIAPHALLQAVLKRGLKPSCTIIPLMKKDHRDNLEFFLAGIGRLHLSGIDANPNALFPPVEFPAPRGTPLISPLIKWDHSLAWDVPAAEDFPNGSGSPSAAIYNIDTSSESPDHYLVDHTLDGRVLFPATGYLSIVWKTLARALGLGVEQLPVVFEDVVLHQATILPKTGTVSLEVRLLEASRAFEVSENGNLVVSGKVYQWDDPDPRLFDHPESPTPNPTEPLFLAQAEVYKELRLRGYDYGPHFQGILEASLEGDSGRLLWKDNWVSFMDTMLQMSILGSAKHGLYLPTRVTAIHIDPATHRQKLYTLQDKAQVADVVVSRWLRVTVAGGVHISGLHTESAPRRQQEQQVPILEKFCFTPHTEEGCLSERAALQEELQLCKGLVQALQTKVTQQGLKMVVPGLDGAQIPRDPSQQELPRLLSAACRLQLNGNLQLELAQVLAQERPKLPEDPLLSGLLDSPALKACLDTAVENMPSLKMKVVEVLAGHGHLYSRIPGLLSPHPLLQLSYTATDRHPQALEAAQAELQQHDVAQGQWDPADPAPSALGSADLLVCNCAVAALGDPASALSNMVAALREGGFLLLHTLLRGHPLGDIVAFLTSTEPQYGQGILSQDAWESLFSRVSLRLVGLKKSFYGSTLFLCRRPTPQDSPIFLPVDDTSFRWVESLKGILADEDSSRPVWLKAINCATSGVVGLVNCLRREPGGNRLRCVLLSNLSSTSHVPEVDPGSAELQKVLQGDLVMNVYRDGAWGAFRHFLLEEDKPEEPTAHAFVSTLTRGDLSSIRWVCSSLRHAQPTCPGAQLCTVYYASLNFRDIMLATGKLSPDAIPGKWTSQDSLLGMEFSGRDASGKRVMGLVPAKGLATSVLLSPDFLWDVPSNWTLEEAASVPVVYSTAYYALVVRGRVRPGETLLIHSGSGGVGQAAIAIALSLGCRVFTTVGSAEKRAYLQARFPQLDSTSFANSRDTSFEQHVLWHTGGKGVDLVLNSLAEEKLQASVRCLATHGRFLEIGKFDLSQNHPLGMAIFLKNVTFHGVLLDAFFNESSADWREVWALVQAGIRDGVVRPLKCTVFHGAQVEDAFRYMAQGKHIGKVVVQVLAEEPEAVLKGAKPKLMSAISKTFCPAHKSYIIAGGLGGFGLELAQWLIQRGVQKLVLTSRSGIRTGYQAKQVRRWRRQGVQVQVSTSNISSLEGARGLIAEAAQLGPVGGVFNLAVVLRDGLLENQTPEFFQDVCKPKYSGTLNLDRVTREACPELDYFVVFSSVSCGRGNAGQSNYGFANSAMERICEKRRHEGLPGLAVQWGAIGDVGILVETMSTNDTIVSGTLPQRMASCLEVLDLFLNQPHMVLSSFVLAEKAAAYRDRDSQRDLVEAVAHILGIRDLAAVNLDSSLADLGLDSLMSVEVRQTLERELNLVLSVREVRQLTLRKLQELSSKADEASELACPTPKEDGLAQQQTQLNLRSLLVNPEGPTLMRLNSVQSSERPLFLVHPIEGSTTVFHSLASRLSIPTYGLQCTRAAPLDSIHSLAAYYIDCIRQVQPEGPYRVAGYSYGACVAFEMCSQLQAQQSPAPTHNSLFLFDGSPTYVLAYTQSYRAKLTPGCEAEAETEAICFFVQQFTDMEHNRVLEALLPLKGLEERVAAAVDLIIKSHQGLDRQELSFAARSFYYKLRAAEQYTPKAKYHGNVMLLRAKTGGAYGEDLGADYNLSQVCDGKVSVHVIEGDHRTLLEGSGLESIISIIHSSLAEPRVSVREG

[24] = cells
[25] = target: T4, Fatty acid synthase; test: FAS thioesterase domain inhibitors, dose response, biochemical, endpoint fluorescence intensity, uHTS hits (AID 624327); type: functional;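 note: fluorescence from hydrolysis of an O-methyl fluorescein acyl ester substrate by the enzyme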
[26] = target: Dual specificity tyrosine-phosphorylation-regulated kinase 1A (Rattus norvegicus, UniProt Q63470); type: biochemical, Homo sapiens
[27] = inhibitors of PGC1a acetylation in cells, dose response, cell-based, cherry-picked samples (AID 720514); type: functional;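 note: potency may reflect raised or lowered acetylation signal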
[28] = HepG2 cell cytotoxicity, dose response, cytotoxicity control, cherry-picked samples (AID 1159577); type: functional, cell-based

With CCCn1nc(-c2ccccc2)c2nc3ccccc3nc21 the EC50 [1] was 61.7 µM (inactive), the EC50 [2] was 5.23 µM (active) and the EC50 [3] was > 99 µM (inactive). For the same molecule, the IC50 [4] was 10.3 µM (active).
In the case of N#C/C(=C/c1ccc(N2CCCCCC2)o1)c1ccc(F)cc1, the EC50 [5] is reported as 19.2 µM (active), the EC50 [6] is reported as 13.6 µM (active) and the EC50 [7] is reported as 16 µM (active). For the same molecule, the EC50 [8] was > 150 µM (not active), the EC50 [9] was 14.1 µM (active) and the EC50 [10] was 3.49 µM (active). For the same molecule, the IC50 [11] was 11.5 µM (not active) and the EC50 [12] was 9.44 µM (active).
With COCC#Cc1ccc([C@@H]2[C@H](CO)N3CCCCN(S(=O)(=O)c4ccc(OC)cc4)C[C@@H]23)cc1 the AC50 [13] was 1.81 µM (active), the AC50 [14] was 1.48 µM (active) and the AC50 [15] was 1.33 µM (active). The AC50 [16] was 98.4 µM (active) and the AC50 [17] was 2.47 µM (active).
In the case of N/C(=N\N=C\c1cccc(O)c1)c1nonc1N, the EC50 [18] is reported as 3.47 µM (active), the EC50 [19] is reported as 1.75 µM (active) and the IC50 [20] is reported as > 67.5 µM (inactive). The EC50 [21] was > 67.5 µM (inactive).
For COc1ccc(/C=c2\sc3nc(-c4ccccc4)c(-c4ccccc4)n3c2=O)cc1OC, the IC50 [4] was 8.12 µM (active).
With O/C(=C\c1nc2ccccc2nc1/C=C(\O)c1ccccc1)c1ccccc1 the IC50 [22] was > 100 µM (active).
With CN(CCO)c1cc(NCCCN2CCC(Cc3ccccc3)CC2)c2nonc2c1[N+](=O)[O-] the IC50 [23] was 6.52 µM (active), the EC50 [24] was 0.215 µM (active) and the EC50 [10] was < 0.1 µM (active). For the same molecule, the IC50 [25] was 12.2 µM (active) and the EC50 [12] was > 60 µM (not active).
In the case of CN1CCc2nc3sc(C#N)c(N)c3c(-c3cccs3)c2C1, the AC50 [26] is reported as 3.27 µM (active), the EC50 [24] is reported as 0.06 µM (active) and the EC50 [10] is reported as < 0.1 µM (active). The EC50 [12] was > 60 µM (not active).
For COc1ccc(F)cc1CN1CCN(CC(=O)N2CCc3ccccc32)CC1, the AC50 [27] was 24.9 µM (active).
For COc1cc(CN2C[C@@H]3N[C@H](C2)[C@@H]3c2ccc(-c3ccncc3)cc2)cc(OC)c1, the AC50 [13] was 2.53 µM (active), the AC50 [28] was > 39 µM (inactive) and the AC50 [14] was 1.9 µM (active). The AC50 [15] was 1.92 µM (active), the AC50 [16] was 18.7 µM (active) and the AC50 [17] was 2.11 µM (active).
In the case of C[C@H](CO)N1C[C@H](C)[C@@H](CN(C)C(=O)C2CCCCC2)Oc2cc(C#Cc3ccncc3)ccc2S1(=O)=O, the AC50 [27] is reported as 9.86 µM (active).
